BindingDB's records for doi:10.1021/jm00350a009 (1982)

Experiment: Compound was tested for inhibition of [3H]dihydroalprenolol radioligand binding to Beta-1 adrenergic receptor in dog heart.

| Compound | IC50 |
| --- | --- |
| CC(C)(C)NC[C@H](O)CON=C1c2ccccc2-c2ccccc21 | 29 nM |
| CC(C)(C)NC[C@@H](O)CON=C1c2ccccc2-c2ccccc21 | 43 nM |
| Cc1ccc(OCC(O)CNC(C)C)c2c1CCC2 (centres undefined) [1-Isopropylamino-3-(7-methyl-indan-4-yloxy)-propan-2-ol] | 186 nM |
| CC(C)(C)NCC(O)CON=C1c2ccccc2-c2ccccc21 (centres undefined) [Fluoren-9-one O-(3-tert-butylamino-2-hydroxy-propyl)-oxime] | 38 nM |
